Activity calls are given as the source filed them. The calls are words filed in the database; no cut-off is given here.
Assays:
[1] = Ionophoric activity across egg yolk L-alpha-phosphatidylcholine-based large unilamellar vesicles loaded with RbCl assessed as chloride ion efflux at 1 mol% after 300 seconds in presence of NaNO3 loaded external vesicles by electrode technique
[2] = (§1) Ionophoric activity across pyranine dye encapsulated pH 7 egg yolk L-alpha-phosphatidylcholine-based large unilamellar vesicles assessed as bromide ion transport by measuring initial rate constant for induction of pH discharge at 0.125 mol% in presence of NaBr loaded external vesicles by fluorescence method (reference value: 2.08 +/- 0.19 10^-2/min)
[3] = Ionophoric activity across pyranine dye encapsulated pH 7 egg yolk L-alpha-phosphatidylcholine-based large unilamellar vesicles assessed as bromide ion transport by measuring induction of pH discharge in presence of NaBr loaded external vesicles by fluorescence method
[4] = as §1, with “iodide” for “bromide”, “0.0156” for “0.125”, “NaI” for “NaBr”, “3.52” for “2.08”, “0.22” for “0.19”
[5] = Binding affinity to tetramethylammonium sulfate anion after 2 mins by spectrophotometric method
[6] = Binding affinity to tetrabutylammonium sulphate anion by 1H NMR spectrophotometric method
[7] = as §1, with “chloride” for “bromide”, “NaCl” for “NaBr”, “0.81” for “2.08”, “0.22” for “0.19”
[8] = Ionophoric activity across egg yolk L-alpha-phosphatidylcholine-based large unilamellar vesicles loaded with NaCl assessed as release of chloride ion after 300 seconds in presence of NaNO3 loaded external vesicles by electrode technique
[9] = as §1, with “0.0078” for “0.125”
[10] = as §1, with “0.0156” for “0.125”
[11] = as §1, with “iodide” for “bromide”, “0.0078” for “0.125”, “NaI” for “NaBr”, “3.52” for “2.08”, “0.22” for “0.19”
[12] = as §1, with “chloride” for “bromide”, “0.0078” for “0.125”, “NaCl” for “NaBr”, “0.81” for “2.08”, “0.22” for “0.19”
[13] = as §1, with “nitrate” for “bromide”, “NaNO3” for “NaBr”, “2.24” for “2.08”, “0.52” for “0.19”
[14] = as §1, with “nitrate” for “bromide”, “0.00781” for “0.125”, “NaNO3” for “NaBr”, “2.24” for “2.08”, “0.52” for “0.19”
[15] = as §1, with “iodide” for “bromide”, “0.0313” for “0.125”, “NaI” for “NaBr”, “3.52” for “2.08”, “0.22” for “0.19”
[16] = as §1, with “0.0625” for “0.125”
[17] = as §1, with “chloride” for “bromide”, “0.0313” for “0.125”, “NaCl” for “NaBr”, “0.81” for “2.08”, “0.22” for “0.19”
[18] = Binding affinity to tetrabutylammonium chloride anion by 1H NMR spectrophotometric method
[19] = Ionophoric activity across egg yolk L-alpha-phosphatidylcholine-based large unilamellar vesicles loaded with NaCl assessed as chloride transportat 1 mol% after 300 seconds in presence of NaSO4 loaded external vesicles by electrode technique
[20] = as §1, with “nitrate” for “bromide”, “0.0625” for “0.125”, “NaNO3” for “NaBr”, “2.24” for “2.08”, “0.52” for “0.19”
[21] = Binding affinity to tetrabutylammonium chloride anion after 2 mins by spectrophotometric method
[22] = as §1, with “nitrate” for “bromide”, “0.01563” for “0.125”, “NaNO3” for “NaBr”, “2.24” for “2.08”, “0.52” for “0.19”
[23] = as §1, with “chloride” for “bromide”, “0.25” for “0.125”, “NaCl” for “NaBr”, “0.81” for “2.08”, “0.22” for “0.19”
[24] = Ionophoric activity across egg yolk L-alpha-phosphatidylcholine-based large unilamellar vesicles loaded with KCl assessed as chloride ion efflux at 1 mol% after 300 seconds in presence of NaNO3 loaded external vesicles by electrode technique
[25] = Ionophoric activity across egg yolk L-alpha-phosphatidylcholine-based large unilamellar vesicles loaded with CsCl assessed as chloride ion efflux at 1 mol% after 300 seconds in presence of NaNO3 loaded external vesicles by electrode technique
[26] = Ionophoric activity across pyranine dye encapsulated pH 7 egg yolk L-alpha-phosphatidylcholine-based large unilamellar vesicles assessed as iodide ion transport by measuring induction of pH discharge in presence of NaI loaded external vesicles by fluorescence method
[27] = as §1, with “0.0313” for “0.125”
[28] = Ionophoric activity across pyranine dye encapsulated pH 7 egg yolk L-alpha-phosphatidylcholine-based large unilamellar vesicles assessed as nitrate ion transport by measuring induction of pH discharge in presence of NaNO3 loaded external vesicles by fluorescence method
[29] = as §1, with “iodide” for “bromide”, “0.0039” for “0.125”, “NaI” for “NaBr”, “3.52” for “2.08”, “0.22” for “0.19”
[30] = as §1, with “chloride” for “bromide”, “0.0625” for “0.125”, “NaCl” for “NaBr”, “0.81” for “2.08”, “0.22” for “0.19”
[31] = Ionophoric activity across pyranine dye encapsulated pH 7 egg yolk L-alpha-phosphatidylcholine-based large unilamellar vesicles assessed as sulfate ion transport by measuring induction of pH discharge up to 3 mol% in presence of Na2SO4 loaded external vesicles by fluorescence method
[32] = as §1, with “nitrate” for “bromide”, “0.03125” for “0.125”, “NaNO3” for “NaBr”, “2.24” for “2.08”, “0.52” for “0.19”
[33] = Ionophoric activity across egg yolk L-alpha-phosphatidylcholine-based large unilamellar vesicles loaded with LiCl assessed as chloride ion efflux at 1 mol% after 300 seconds in presence of NaNO3 loaded external vesicles by electrode technique
[34] = Ionophoric activity across pyranine dye encapsulated pH 7 egg yolk L-alpha-phosphatidylcholine-based large unilamellar vesicles assessed as chloride ion transport by measuring induction of pH discharge in presence of NaCl loaded external vesicles by fluorescence method
[35] = as §1, with “iodide” for “bromide”, “0.0625” for “0.125”, “NaI” for “NaBr”, “3.52” for “2.08”, “0.22” for “0.19”
[36] = as §1, with “chloride” for “bromide”, “0.5” for “0.125”, “NaCl” for “NaBr”, “0.81” for “2.08”, “0.22” for “0.19”
[37] = as §1, with “chloride” for “bromide”, “1” for “0.125”, “NaCl” for “NaBr”, “0.81” for “2.08”, “0.22” for “0.19”
[38] = Ionophoric activity across egg yolk L-alpha-phosphatidylcholine-based large unilamellar vesicles loaded with RbCl assessed as chloride ion efflux at 3 mol% after 300 seconds in presence of NaNO3 loaded external vesicles by electrode technique
[39] = Ionophoric activity across egg yolk L-alpha-phosphatidylcholine-based large unilamellar vesicles loaded with LiCl assessed as chloride ion efflux at 3 mol% after 300 seconds in presence of NaNO3 loaded external vesicles by electrode technique
[40] = as §1, with “nitrate” for “bromide”, “0.0313” for “0.125”, “NaNO3” for “NaBr”, “2.24” for “2.08”, “0.52” for “0.19”
[41] = Ionophoric activity across egg yolk L-alpha-phosphatidylcholine-based large unilamellar vesicles loaded with CsCl assessed as chloride ion efflux at 3 mol% after 300 seconds in presence of NaNO3 loaded external vesicles by electrode technique
[42] = Ionophoric activity across egg yolk L-alpha-phosphatidylcholine-based large unilamellar vesicles loaded with KCl assessed as chloride ion efflux at 3 mol% after 300 seconds in presence of NaNO3 loaded external vesicles by electrode technique
[43] = as §1, with “0.25” for “0.125”
[44] = as §1, with “nitrate” for “bromide”, “0.25” for “0.125”, “NaNO3” for “NaBr”, “2.24” for “2.08”, “0.52” for “0.19”
[45] = Ionophoric activity across HPTS dye encapsulated pH 7 egg yolk L-alpha-phosphatidylcholine-based large unilamellar vesicles assessed as chloride ion transport by measuring induction of pH discharge in presence of NaCl loaded external vesicles by fluorescence method

| Structure (SMILES) | K [2] [×10⁻² /min] | EC50 [3] [mol%] | K [4] [×10⁻² /min] | Ka [5] [×10⁵ /M] | logKa [5] | K [7] [×10⁻² /min] | Activity [8] | K [10] [×10⁻² /min] | K [11] [×10⁻² /min] | K [13] [×10⁻² /min] | K [15] [×10⁻² /min] | K [16] [×10⁻² /min] | K [17] [×10⁻² /min] | Activity [19] | K [20] [×10⁻² /min] | Ka [21] | logKa [21] | K [22] [×10⁻² /min] | K [23] [×10⁻² /min] | EC50 [26] [mol%] | also measured |
| --- | --- | --- | --- | --- | --- | --- | --- | --- | --- | --- | --- | --- | --- | --- | --- | --- | --- | --- | --- | --- | --- |
| O=c1c(NCCN(CCNc2c(Nc3ccc(C(F)(F)F)cc3)c(=O)c2=O)CCNc2c(Nc3ccc(C(F)(F)F)cc3)c(=O)c2=O)c(Nc2ccc(C(F)(F)F)cc2)c1=O | 11 | 0.13 | 6.27 | 4.79 | 5.64 | 4.04 | Dose-dependent effect | 3.37 | 5.2 | 11.4 | 9.99 | 7.27 | 1.68 | inactive | 7.45 | 7.03 ×10² /M | 2.84 | 3.17 | 5.41 | 0.06 | Activity [1]: inactive; logKa [6]: 4.87; K [9]: 2.59 ×10⁻² /min; K [12]: 1.27 ×10⁻² /min; K [14]: 2.53 ×10⁻² /min; logKa [18]: 2.65; Activity [24]: inactive; Activity [25]: inactive; K [27]: 4.31 ×10⁻² /min; EC50 [28]: 0.11 mol%; K [29]: 3.94 ×10⁻² /min; K [30]: 2.69 ×10⁻² /min; Activity [31]: inactive; K [32]: 4.91 ×10⁻² /min; Activity [33]: inactive; EC50 [34]: 0.14 mol%; K [35]: 14.5 ×10⁻² /min |
| O=c1c(NCCN(CCNc2c(Nc3cc(C(F)(F)F)cc(C(F)(F)F)c3)c(=O)c2=O)CCNc2c(Nc3cc(C(F)(F)F)cc(C(F)(F)F)c3)c(=O)c2=O)c(Nc2cc(C(F)(F)F)cc(C(F)(F)F)c2)c1=O | 6.24 | 0.49 | 5.92 | > 1 | > 5 | 2.57 | Dose-dependent effect | 2.22 | 4.41 | 6.9 | 7.67 | 3.85 | 1.32 | inactive | 4.52 | 2.94 ×10³ /M | 3.47 | 2.77 | 3.87 | 0.05 | K [36]: 6.63 ×10⁻² /min; K [37]: 9.42 ×10⁻² /min; Activity [38]: inactive; K [27]: 2.89 ×10⁻² /min; EC50 [28]: 0.23 mol%; K [29]: 3.7 ×10⁻² /min; Activity [39]: inactive; K [40]: 3.2 ×10⁻² /min; Activity [41]: inactive; Activity [42]: inactive; K [43]: 10.8 ×10⁻² /min; Activity [31]: inactive; K [44]: 10.2 ×10⁻² /min; EC50 [34]: 0.75 mol%; K [35]: 10.6 ×10⁻² /min |
| O=C(Nc1ccccc1)Nc1ccc(N2COc3c(c4c(c5c3CN(c3ccc(NC(=O)Nc6ccccc6)cc3)CO5)CN(c3ccc(NC(=O)Nc5ccccc5)cc3)CO4)C2)cc1 | – | – | – | – | – | – | – | – | – | – | – | – | – | – | – | – | – | – | – | – | EC50 [45]: 0.49 mol% |
